“Also recorded” adds a separate entry of the source. Like-named read-outs stand apart in the source and are kept apart here.
Assays:
[1] = biological target: T1, E. coli GAR Tfase (Escherichia coli, UniProt P08179); assay: E. coli GAR Tfase inhibition; format: biochemical; details: E. coli GAR Tfase
Protocol: (§1) GAR and AICAR Tfase inhibition studies were conducted as previously detailed^28 with the exception that the AICAR Tfase inhibition was conducted in the absence of 5 mM β-mercaptoethanol and screened with 10 nM enzyme, […] inhibitor and […] of cofactor. The DHFR inhibition study was conducted as previously detailed with 10 nM enzyme, […] H2F, […] NADPH and […] inhibitor.
The Ki values for the folate analogues were measured as previously described (Boger, D. L., et al., Bioorg. Med. Chem. 1997, 5, 1817-1830). Briefly, each compound was dissolved in dimethyl sulfoxide (DMSO) and then diluted in assay buffer. […] Thus, all assays were conducted by mixing 10 μM 10-formyl-5,8-dideazafolate (fDDF), 20 μM inhibitor in total volume of 1 mL buffer (0.1 M HEPES, pH 7.5) at 26° C., and the reaction initiated by the addition of 76 nM E. coli or human GAR Tfase. The assay monitors the deformylation of fDDF (Δε=18.9 mM^−1 cm^−1 at 295 nm) resulting from the transfer of the formyl group to β-GAR.

[2] = biological target: human AICAR Tfase (Homo sapiens, UniProt P31939); assay: AICAR Tfase inhibition; format: biochemical
Protocol: as §1

[3] = biological target: DHFR (Escherichia coli, UniProt P0ABQ4); assay: DHFR inhibition (101, 102); format: biochemical
[4] = biological target: thymidylate synthetase (TS) (Homo sapiens, UniProt P04818); assay: Thymidylate synthetase inhibition; format: biochemical
[5] = tested on: CCRF-CEM cell line; assay: CCRF-CEM cytotoxic assay; format: cell-based, human; details: Homo sapiens
Protocol: (§2) The cytotoxic activity of the compounds was measured using CCRF-CEM human leukemia cells, as described previously (Boger, D. L., et al., Bioorg. Med. Chem. 1997, 5, 1847-1852). Two mutant cell lines, CCRF-CEM/MTX and CCRF-CEM/FPGS^− were used to determine the dependence on the reduced folate active transport system and folylpolyglutamate synthetase (FPGS), respectively (Jansen, G., et al., Cancer Res. 1989, 49, 2455-2459).

[6] = tested on: CCRF-CEM/MTX cell line; assay: Cytotoxic assay, reduced folate carrier deficient mutant; format: cell-based, human; details: impaired reduced folate carrier
Protocol: as §2

[7] = tested on: CCRF-CEM/FPGS^− cell line; assay: Cytotoxic assay, FPGS deficient mutant; format: cell-based, human; details: lacks folylpolyglutamate synthase
Protocol: as §2

[8] = Chemical stability; format: physicochemical
[9] = Solubility; format: physicochemical; details: pH 7-8
[10] = biological target: T1, E. coli GAR Tfase; details: 10-formyl-TDAF, earlier studies; cited from earlier work
[11] = tested on: CCRF-CEM cell line; details: earlier studies; cited from earlier work
[12] = earlier studies; cited from earlier work

Structure (SMILES) | Ki [1] [nM] | inhibition of AICAR Tfase (in words) [2] | Ki ([2]; AICAR Tfase) [nM] | inhibition of DHFR (in words) [3] | Ki ([3]; DHFR) [nM] | inhibition of TS (in words) [4] | Ki ([4]; TS) [nM] | IC50 ([5]; in the presence of media purines) [nM] | IC50 ([5]; purines (hypoxanthine) absent in the media) [nM] | cytotoxic activity (in words) [6] | cytotoxic activity (in words) [7] | chemical stability (in words) [8] | stability at pH 7-8 ([8]; pH 7-8 buffers in the presence of air, 7 days) | solubility [9] | Ki [10] [nM] | cytotoxic activity (in words) [11] | chemical stability (in words) [12]
Nc1nc(N)c(CCCC(C(=O)C(F)(F)F)c2ccc(C(=O)N[C@@H](CCC(=O)O)C(=O)O)cc2)c(=O)[nH]1 (stereo partly drawn) [Compound 101, N-{4-[4-(2,4-Diamino-6-oxo-1,6-dihydropyrimidin-5-yl)-1-(2,2,2-trifluoroacetyl)butyl]benzoyl}-L-glutamic acid] | 1900 | inactivity; also recorded: inactive | > 100000 | inactive | > 100000 | inactive | > 100000 | > 100000 | 16 | lost activity | lacked or lost activity | chemically stable | excellent; also recorded: no decomposition or reaction | excellent | – | – | –
Nc1nc2ccc(CC(C=O)c3ccc(C(=O)N[C@@H](CCC(=O)O)C(=O)O)cc3)cc2c(=O)[nH]1 (some centres unmarked) [Compound 103, 10-formyl-5,8,10-trideazafolic acid] | – | – | – | – | – | – | – | – | – | – | – | – | – | – | 260 | failed to exhibit effective cytotoxic activity | poor stability; also recorded: facile oxidative decarbonylation
